Data taken from patent US6309842A, “Use of modified tethers in screening compound libraries” (Glaxo Wellcome Inc., priority 1997, dated 2001).

Target: T1, STE2 receptor (Saccharomyces cerevisiae, UniProt D6VTK4)
T1 construct: expressed in transfected cells; host or cells: yeast strain ARY84 (Δste2::ura3, plasmid pRS416(URA3)-STE2)
T1 sequence (D6VTK4 1-431): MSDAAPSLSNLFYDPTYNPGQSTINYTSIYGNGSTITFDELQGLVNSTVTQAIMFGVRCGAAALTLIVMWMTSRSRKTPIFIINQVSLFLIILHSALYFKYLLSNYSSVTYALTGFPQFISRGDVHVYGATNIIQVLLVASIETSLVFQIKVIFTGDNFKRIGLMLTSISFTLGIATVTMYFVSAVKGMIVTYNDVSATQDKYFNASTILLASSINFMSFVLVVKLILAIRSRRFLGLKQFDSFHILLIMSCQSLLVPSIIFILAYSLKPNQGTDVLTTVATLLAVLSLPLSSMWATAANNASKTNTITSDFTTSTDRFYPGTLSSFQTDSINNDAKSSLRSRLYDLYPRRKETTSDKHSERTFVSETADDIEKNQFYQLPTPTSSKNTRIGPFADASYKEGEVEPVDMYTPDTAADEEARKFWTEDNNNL
Experiment: Bead tether modification by yeast acid phosphatase, FACScan of 3E7-coated beads
Format: cell-based
Conditions: 500 nM alpha factor, beads exposed 18 hr, 200 nM AF12402
Text: This system employs yeast ARI 84 reporter cells bearing an STE2 receptor and containing a reporter construct in which a pho3 gene is linked to a FUS1 promoter. Acid phosphatase expressed by the yeast is used to dephosphorylate the substrate phospho-YGGFL-linker-biotin. (SEQ ID NO:25) As a result of dephosphorylation, the substrate can bind to a 3E7 antibody tether. The biotinylated portion of modified tethers is stained using a PE- or alkaline-phosphatase-conjugated streptavidin. Complexes with stained tethers are sorted by FACS™.
ARY84 culture from a fresh, 4-10 day old patch was grown in 3 ml SC minimal media minus Trp, Ura, Leu, pH adjusted to 6.15 using MES buffer 200 mM final at @30C overnight in a tube rotator. At A600, the growing culture was diluted to 0.1 A600 in duplicate in pH 6.15 SC media minus Trp, Ura, Leu. One diluted culture was induced by addition of alpha factor to 500 nM final concentration. 0.1 ml of the appropriate diluted induced or uninduced culture was added to wells of a BSA-blocked 96-well microtitre plate. […]
A desired amount of monobeads (at about 1×10^7 beads/ml) was washed once in 0.5 ml methanol, and twice in 1 ml PBS, pH 7.5. […] The density of beads was determined and about 1×10^5 beads were added to each well (after washing with PBS 0.1% BSA to remove the azide). […]
Staining was analyzed by running the beads through a Becton Dickinson FACScan™ machine. […]

In the case of α-factor, the “FACScan shift of beads, induced vs not induced yeast” value is reported as 10 fold.
